Measurements: patent US20250388542A1, “ANALOGUES OF PENTAMIDINE AND USES THEREFOR” (Auransa Inc., priority 2018, published 2025)

Tests used:
Experiment in all cases: CellTiter-Glo cytotoxicity, cancer cell line panel
Format in all cases: cell-based
[1] = system: 769-P; conditions: Homo sapiens, Renal cell carcinoma
Protocol: (§1) The objective of this study is to investigate potential cell killing effect of Compounds 1-15 on 3 cancer cell lines. 50% inhibition concentration (IC50) was determined for these compounds in various cancer cell lines using CellTiter-Glo™ luminescent cell viability assay at different compound concentrations. Each cell line (e.g., NCI-H209; NCI-H69; and SW1271) was treated with Compounds 1-15 and culture medium contains 0.2% [v/v] DMSO vehicle control. All the cells were cultured in the media supplemented with 10-20% fetal bovine serum at 37° C., 5% CO2 and 95% humidity.
(§2) The objective of this study is to investigate the effect of Compound 1 on cytotoxicity against 61 different types of cancer cell lines. IC50 were values were obtained using CellTiter-Glo™ as described above. Each cell line shown in Table 3 was treated with Compound 1, a standard chemotherapy drug, cisplatin, as reference control and culture medium contains 0.2% [v/v] DMSO vehicle control. All cancer cell lines were cultured in media supplemented with 10-20% fetal bovine serum at 37° C., 5% CO2 and 95% humidity.

[2] = system: A498; conditions: Homo sapiens; A498, Renal cell carcinoma
Protocol: as §1, §2

[3] = system: A549; conditions: Homo sapiens; A549, Lung adenocarcinoma
Protocol: as §1, §2

[4] = system: BT-474; conditions: Homo sapiens; BT-474, Invasive ductal carcinoma
Protocol: as §1, §2

[5] = system: Caki-1; conditions: Homo sapiens; Caki-1, Clear cell renal cell carcinoma
Protocol: as §1, §2

[6] = system: DLD-1; conditions: Homo sapiens; DLD-1, Colon adenocarcinoma
Protocol: as §1, §2

[7] = system: HCCC-9810; conditions: HCCC9810; HCCC-9810, Intrahepatic cholangiocarcinoma
Protocol: as §1, §2

[8] = system: HLE; conditions: Homo sapiens, Hepatocellular carcinoma
Protocol: as §1, §2

[9] = system: HUH-7; conditions: Homo sapiens; HUH-7, Hepatocellular carcinoma
Protocol: as §1, §2

[10] = system: Hep G2/C3A; conditions: HepG2/C3A, Hepatoblastoma carcinoma
Protocol: as §1, §2

[11] = system: JHH-4; conditions: JHH-4, Hepatocellular carcinoma
Protocol: as §1, §2

[12] = system: JHH-5; conditions: JHH-5, Hepatocellular carcinoma
Protocol: as §1, §2

[13] = system: JHH-7; conditions: JHH7; JHH-7, Hepatocellular carcinoma
Protocol: as §1, §2

[14] = system: Li-7; conditions: Li-7, Hepatocellular carcinoma
Protocol: as §1, §2

[15] = system: NOZ; conditions: Gallbladder carcinoma
Protocol: as §1, §2

[16] = system: OZ; conditions: Intrahepatic cholangiocarcinoma
Protocol: as §1, §2

[17] = system: RBE; conditions: Intrahepatic cholangiocarcinoma
Protocol: as §1, §2

[18] = system: SK-HEP-1; conditions: Homo sapiens, SK-HEP1; SK-HEP-1, Hepatocellular carcinoma
Protocol: as §1, §2

[19] = system: SK-NEP-1; conditions: Homo sapiens; SK-NEP-1, Ewing sarcoma
Protocol: as §1, §2

[20] = system: SNU-423; conditions: Homo sapiens; SNU-423, Hepatocellular carcinoma
Protocol: as §1, §2

[21] = system: SW 156; conditions: SW 156, Renal cell carcinoma
Protocol: as §1, §2

For N=C(N)c1ccc(OCCCCCOc2ccc(C(=N)N)nc2)cc1 [Compound 1, 5-(5-(4-carbamimidoylphenoxy)pentyloxy)picolinimidamide], the IC50 [1] was 1630 nM, the IC50 [2] was 1170 nM and the IC50 [3] was 370 nM. It also gave an IC50 [4] of 15700 nM, an IC50 [5] of 3420 nM and an IC50 [6] of 3110 nM. The IC50 [7] was 710 nM, the IC50 [8] was 590 nM and the IC50 [9] was 970 nM. It also gave an IC50 [10] of 230 nM, an IC50 [11] of 1270 nM and an IC50 [12] of 650 nM. For the same compound, the IC50 [13] was 500 nM, the IC50 [14] was 760 nM and the IC50 [15] was 2540 nM. For the same compound, the IC50 [16] was 9390 nM, the IC50 [17] was 1400 nM and the IC50 [18] was 4720 nM. The IC50 [19] was 1930 nM, the IC50 [20] was 1750 nM and the IC50 [21] was 6280 nM.
